{"source": "patent US8563516B2", "about": "“Foxp3 peptide vaccine” (OncoTherapy Science, Inc., priority 2007, dated 2013)", "key": {"peptide-pulsed T2 cells [1]": {"system": "peptide-pulsed T2 cells", "experiment": "IFN-gamma ELISPOT on CTLs induced with HLA-A0201 restricted Foxp3 peptides", "assay_type": "cell-based, human", "details": "FIG. 2A/2B/2C", "from_the_text": "(§1) Monocyte-derived dendritic cells (DCs) were used as antigen-presenting cells (APCs) to induce CTL responses against peptides presented on HLA. DCs were generated in vitro as described elsewhere (Horiguchi S. et al. Cancer Res. 59:2950-6). Specifically, peripheral blood mononuclear cells (PBMCs) isolated from normal volunteer (HLA-A*2402 and/or HLA-A*0201) with Ficoll-Plaque (Pharmacia) solution were separated by adherence to plastic tissue culture dish (Becton Dickinson) so as to enrich them for the monocyte fraction. The monocyte-enriched population was cultured in the presence of 1000 U/ml of GM-CSF (R&D System) and 1000 U/ml of IL-4 (R&D System) in AIM-V medium (Invitrogen) containing 2% heat-inactivated autologous serum (AS). After 7 days in the culture, the cytokine-generated DCs were pulsed with 20 mcg/ml of the synthesized peptides in the presence of 3 mcg/ml of beta2-microglobulin for 4 hrs at 20 degrees C. in AIM-V medium. These peptide-pulsed DCs were then inactivated with mitomycin C (MMC) (30 mcg/ml for 30 mins) and mixed at a 1:20 ratio with autologous CD8+ T cells, obtained by positive selection with CD8 Positive Isolation Kit (Dynal). These cultures were set up in 48-well plates (Corning); each well contained 1.5×10^4 peptide-pulsed DCs, 3×10^5 CD8+ T cells and 10 ng/ml of IL-7 (R&D System) in 0.5 ml of AIM-V/2% AS. Three days later, these cultures were supplemented with IL-2 (CHIRON) to a final concentration of 20 IU/ml. On day 7 and 14, the T cells were further restimulated with the peptide-pulsed autologous DCs. The DCs were prepared each time through the same procedure described above. CTL activity was tested against peptide-pulsed A24LCL cells or T2 cells after the 3rd round of peptide stimulation on day 21.\n(§2) To examine the specific CTL activity, IFN-gamma ELISPOT assay and IFN-gamma ELISA were performed. Briefly, peptide-pulsed A24-LCL, T2 cell (1×10^4/well) or the cells endogenously expressing Foxp3 and HLA molecule was prepared as a stimulator cells. Cultured CTL lines in 48 wells were used as a responder cells. IFN-gamma ELISPOT assay and IFN-gamma ELISA were performed under manufacture procedure.\nResulting CTLs showing detectable specific CTL activity were shown in FIG. 2A, FIG. 2B and FIG. 2C when performed by IFN-gamma ELISPOT assay."}, "peptide-pulsed T2 cells [2]": {"system": "peptide-pulsed T2 cells", "experiment": "IFN-gamma ELISA on expanded CTL lines, HLA-A02 peptides", "assay_type": "cell-based, human", "details": "expanded cells of positive wells, FIG. 3A-D, 3F", "experimental": "(§3) CTLs were expanded in culture using a similar method as reported by Riddell, et al. (Walter et al., N Engl J Med 333(16): 1038-44, 1995; Riddell et al., Nat Med 2(2): 216-23, 1996 February). A total of 5×10^4 CTLs were resuspended in 25 ml of AIM-V/5% AS with 2 kinds of human B-lymphoblastoid cell lines, inactivated with MMC, in the presence of 40 ng/ml of anti-CD3 monoclonal antibody (Pharmingen). One day after initiating the cultures, 120 IU/ml of IL-2 were added to the cultures. The cultures were fed with fresh AIM-V/5% AS containing 30 IU/ml of IL-2 on days 5, 8 and 11.\nas §2\n(§4) These cells in the positive wells were expanded and performed IFN-gamma ELISA assay."}, "[3]": {"system": "peptide-pulsed A24LCL cells or T2 cells", "experiment": "In vitro CTL induction by peptide-loaded dendritic cells (summary statements)", "assay_type": "cell-based, human", "details": "for specific CTL activity: against peptide pulsed target cells; for establishment of CTLs: in vitro stimulation of T-cells by DCs loaded with peptide", "from_the_text": "Confirmation of CTL inducibility can be accomplished by inducing antigen-presenting cells carrying human MHC antigens (for example, B-lymphocytes, macrophages, and dendritic cells), or more specifically dendritic cells derived from human peripheral blood mononuclear leukocytes, and after stimulation with the peptides, mixing with CD8-positive cells, and then measuring the IFN-gamma produced and released by CTL against the target cells. As the reaction system, transgenic animals that have been produced to express a human HLA antigen (for example, those described in BenMohamed L, Krishnan R, Longmate J, Auge C, Low L, Primus J, Diamond D J, Hum Immunol 61(8): 764-79, 2000 August, Related Articles, Books, Linkout Induction of CTL response by a minimal epitope vaccine in HLA A*0201/DR1 transgenic mice: dependence on HLA class II restricted T(H) response) can be used. For example, the target cells can be radiolabeled with ^51Cr and such, and cytotoxic activity can be calculated from radioactivity released from the target cells. Alternatively, it can be examined by measuring IFN-gamma produced and released by CTL in the presence of antigen-presenting cells that carry immobilized peptides, and visualizing the inhibition zone on the media using anti-IFN-gamma monoclonal antibodies.\nas §1, §2"}, "[4]": {"system": "peptide-pulsed A24LCL cells", "experiment": "IFN-gamma ELISPOT on CTLs induced with HLA-A2402 restricted Foxp3 peptides", "assay_type": "cell-based, human", "details": "FIG. 1A/1B", "from_the_text": "as §1, §2\nCTLs for the peptides derived from Foxp3 protein were generated according to the method described in the “Materials and Methods”, supra."}, "[5]": {"system": "peptide-pulsed A24LCL cells", "experiment": "IFN-gamma ELISA on expanded CTL lines, HLA-A24 peptides", "assay_type": "cell-based, human", "details": "expanded cells of positive wells, FIG. 3E, 3G", "experimental": "as §3, §2, §4"}, "BALB/c mice": {"system": "BALB/c mice", "experiment": "Immunogenicity of epitope peptides in BALB/c mice (IFN-gamma ELISPOT on splenocytes)", "assay_type": "in vivo", "experimental": "IFA-conjugated peptide or IFA only were injected s.c. into BALB/c mice on day 0 and 7. On day 14, splenocytes of vaccinated mice were harvested and used as responder cells. 1×10^4 RLmale1 cells pulsed corresponding peptide (solid square), or no peptide (open square) were used as stimulator cells for IFN-gamma ELISPOT assay. Vaccination using Foxp3-252_h (A) and Foxp3-252_m (B) were performed into five mice (M1-M5) and IFA without any peptide injection were performed into three mice (N1-N3) as control in each assay.\nFor priming the peptide-specific CTLs, immunization was given using 100 mcl vaccine mixture, which contains 50 mcl HLA-A24 restricted peptide and 50 mcl IFA per mouse. The vaccine was injected s.c. into the right flank of mice for the first immunization on day 0 and in the left flank for the second on the day 7. On day 14, splenocytes from vaccinated mice were used as the responder cells, and RLmale1 cells pulsed with or without peptides were used as the stimulator cells for IFN-gamma ELISPOT assay.\nTo evaluate the immunogenicity of Foxp3-9-252 peptide for BALB/c mice, immunization with human Foxp3-9-252 peptide (Foxp3-252_h; KLSAMQAHL)(SEQ ID NO: 17) and mouse Foxp3-9-252 peptide (Foxp3-252_m; KLGAMQAHL) (SEQ ID NO: 89) were performed, respectively. After second injection of peptide, peptide specific CTL activity was determined by IFN-gamma ELISPOT assay (FIG. 5)."}, "4T1 breast cancer cells": {"system": "4T1 breast cancer cells", "experiment": "In vivo antitumor effects of vaccination, 4T1 tumor", "parameters": "species or system BALB/c mice", "details": "4T1 s.c. day 0, vaccination day 3 and 10, compared with control mice, FIG. 6", "experimental": "1×10^5 4T1 breast cancer cell lines were injected into BALB/c mice on day 0. IFA-conjugated with Foxp3-252_h (-open circle-), Foxp3-252_m (-solid square-), no peptide (-solid triangle-) was injected on day 3 and 10. As control of normal tumor growth, non-vaccinated mice (-x-) were also prepared in this assay.\n4T1 cells (1×10^5 per mouse) were injected s.c. into the right flank of BALB/c mice on day 0. Vaccination was done on days 3 and 10 using hFoxp3-252 (KLSAMQAHL: SEQ ID NO: 17) or mFoxp3-252 (KLGAMQAHL: SEQ ID NO: […]) IFA-conjugated peptides.\nTo examine the antitumor effects with peptide vaccination targeted Foxp3, in vivo therapeutic setting was attempted by using 4T1 tumor cells and BALB/c mice. The 4T1 breast cancer cells were injected s.c. into BALB/c mice on day 0, and then vaccination was done on these mice 3 and 10 days after the tumor challenge."}, "[6]": {"system": "293T that transfected both Foxp3 and HLA-A02", "experiment": "Specific CTL activity against target cells expressing Foxp3 and HLA-A02", "assay_type": "cell-based, human", "experimental": "as §2\nThe established CTL clone raised against these peptides were examined for their ability to recognize the target cells endogenously expressing Foxp3 and HLA-A*24 or 02. Specific CTL activity against 293T transfected both full length of Foxp3 gene and HLA-A*24 or 02 molecule, which is specific model for the target cells endogenously express Foxp3 and HLA-A*24 or 02, was tested using the CTL lines raised by Foxp3-A02-9-390 (SEQ ID NO: 15) and Foxp3-A02-9-252 (SEQ ID NO: 17) as effector cells. […] Furthermore, these peptides were epitope peptides, which can utilize vaccine targeting Foxp3 expressed T-regs."}}, "note": "“Also recorded” adds a separate entry of the source. Ends that are not written are not given here.", "data": [{"substance": "ALLQDRPHFM (peptide vaccine) [SEQ ID NO 27]", "values": [{"measurement": "IFN-gamma production of CTLs stimulated with peptide, compared with the control", "setting": "peptide-pulsed T2 cells [1]", "value": "potent IFN-gamma production"}, {"measurement": "IFN-gamma production of CTL lines stimulated with peptide, compared with the control", "setting": "peptide-pulsed T2 cells [2]", "value": "potent IFN-gamma production"}, {"measurement": "specific CTL activity", "setting": "[3]", "value": "significant and specific CTL activity"}, {"measurement": "establishment of CTLs", "setting": "[3]", "value": "CTLs were successfully established"}]}, {"substance": "GPLPhLQALL (GPLPHLQALL; not fully specified (residue 5); printed as GPLPhLQALL) [SEQ ID NO 67]", "values": [{"measurement": "IFN-gamma production of CTLs stimulated with peptide, compared with the control", "setting": "[4]", "value": "potent IFN-gamma production"}, {"measurement": "IFN-gamma production of CTL lines stimulated with peptide, compared with the control", "setting": "[5]", "value": "potent IFN-gamma production"}, {"measurement": "specific CTL activity", "setting": "[3]", "value": "significant and specific CTL activity"}, {"measurement": "establishment of CTLs", "setting": "[3]", "value": "CTLs were successfully established"}]}, {"substance": "KLGAMQAHL (peptide vaccine) [SEQ ID NO 88, mouse Foxp3-9-252 peptide]", "values": [{"measurement": "mice with peptide specific CTL response", "setting": "BALB/c mice; IFA-conjugated peptide s.c. day 0 and 7, splenocytes day 14, RLmale1 stimulator cells, FIG. 5", "value": "one of five"}, {"measurement": "induction of epitope specific CTLs in vivo", "setting": "BALB/c mice; vaccination of BALB/c mice, discussion", "value": "could induce epitope specific CTLs in vivo"}, {"measurement": "tumor growth / antitumor effect", "setting": "4T1 breast cancer cells; listed as Foxp3-252_m", "value": "tumor growth apparently reduced; also recorded: Significant difference of tumor growth suppression"}, {"measurement": "tumor growth / antitumor effect", "setting": "4T1 breast cancer cells; listed as mFoxp3-252", "value": "obviously anti-tumor effects"}]}, {"substance": "SLHKCFVRV (peptide vaccine) [SEQ ID NO 15]", "values": [{"measurement": "IFN-gamma production of CTLs stimulated with peptide, compared with the control", "setting": "peptide-pulsed T2 cells [1]", "value": "potent IFN-gamma production"}, {"measurement": "IFN-gamma production of CTL lines stimulated with peptide, compared with the control", "setting": "peptide-pulsed T2 cells [2]", "value": "potent IFN-gamma production"}, {"measurement": "specific CTL activity of CTL lines raised by peptide", "setting": "[6]; against 293T transfected with both Foxp3 and HLA-A02, FIG. 4A/4B", "value": "high specific CTL activity"}, {"measurement": "specific CTL activity against controls", "setting": "[6]; controls of FIG. 4A/4B", "value": "did not show significant specific CTL activity"}, {"measurement": "specific CTL activity", "setting": "[3]", "value": "significant and specific CTL activity"}, {"measurement": "establishment of CTLs", "setting": "[3]", "value": "CTLs were successfully established"}]}, {"substance": "SLNPmPPSQL (chain 1 SLNPMPPSQL; chain 2 SLNPMPPSQL; not fully specified (some residues)) [SEQ ID NO 74]", "values": [{"measurement": "IFN-gamma production of CTLs stimulated with peptide, compared with the control", "setting": "[4]", "value": "potent IFN-gamma production"}, {"measurement": "IFN-gamma production of CTL lines stimulated with peptide, compared with the control", "setting": "[5]", "value": "potent IFN-gamma production"}, {"measurement": "specific CTL activity", "setting": "[3]", "value": "significant and specific CTL activity"}, {"measurement": "establishment of CTLs", "setting": "[3]", "value": "CTLs were successfully established"}]}]}
